From ChEMBL document CHEMBL4699579, “A Peptidyl Inhibitor that Blocks Calcineurin-NFAT Interaction and Prevents Acute Lung Injury” (J Med Chem, 2020) come the findings set out here.

SMILES strings stand for the structures. Calls of active or inactive are those of the source. The rule behind the calls is not given here. Starred links: 1 amine or outer side, 2 acyl side, 3 side chain; linkers in the order of their positions; H or OH if unused. Positions of bridges follow the written chain, without caps; N, C: chain ends. Non-standard residues stand in square brackets, D forms with d. Residues, ends and D or L forms follow the SMILES beside them. Chains are numbered I, II in the order given. *: point of attachment. Benzoyl(2,3-Cl2) = O=C(c1cccc(Cl)c1Cl)*; X3 = CC1(C)SC[C@@H](C(=O)[*:2])N1[*:1]; 2Nal = N[C@@H](Cc1ccc2ccccc2c1)C(=O)O; Tle = CC(C)(C)[C@H](N)C(=O)O; AEEA = NCCOCCOCC(=O)O

One data set deals with Jurkat. Kind of data set: Inhibition of Calcineurin in human Jurkat cells. In kind it is cell-based.
Data set [1] in a line: Half life in human serum. It is filed as ADME, cell-free.
The test system of a further data set is HeLa. The data set is described as follows: Toxicity in human HeLa cells assessed as reduction in cell viability up to 25 uM incubated for 72 hrs by MTT assay. It is filed as cell-based.
Data set [2] has as its system Mus musculus. The data set is described as follows: Anti-inflammatory activity in BALB/c mouse model of LPS-induced ALI assessed as reduction in LPS-induced TNFalpha in BALF at 5 mg/kg dosed via intranasal insuffIation pre-treated 2 hrs before LPS stimulation for 16 hrs. It is filed as functional, organism-based. The following applies: dose mg/kg 5-10, time 18.0 hrs.

The test system of data set [3] is Mus musculus. Kind of data set: Anti-inflammatory activity in BALB/c mouse model of LPS-induced ALI assessed as reduction in LPS-induced IL6 in BALF at 5 mg/kg dosed via intranasal insuffIation pre-treated 2 hrs before LPS stimulation for 16 hrs. It is filed as functional, organism-based. The following applies: dose mg/kg 5-10, time 18.0 hrs.
Data set [4] has as its system Mus musculus. The data set is described as follows: Anti-inflammatory activity in BALB/c mouse model of LPS-induced ALI assessed as reduction in LPS-induced extravasated BALF protein in BALF at 5 mg/kg dosed via intranasal insuffIation pre-treated 2 hrs before LPS stimulation for 16 hrs. The settings on record: dose mg/kg 5-10, time 18.0 hrs. In kind it is functional, organism-based.

Data set [5] relates to Mus musculus. The data set is described as follows: Anti-inflammatory activity in BALB/c mouse model of LPS-induced ALI assessed as reduction in LPS-induced TNFalpha in plasma at 5 mg/kg dosed via intranasal insuffIation pre-treated 2 hrs before LPS stimulation for 16 hrs. It is filed as functional, organism-based. The settings on record: dose mg/kg 5-10, time 18.0 hrs.
Data set [6] relates to Mus musculus. The data set is described as follows: Anti-inflammatory activity in BALB/c mouse model of LPS-induced ALI assessed as reduction in LPS-induced IL6 in plasma at 5 mg/kg dosed via intranasal insuffIation pre-treated 2 hrs before LPS stimulation for 16 hrs. In kind it is functional, organism-based. The settings on record: dose mg/kg 5-10, time 18.0 hrs.
Data set [7] deals with Mus musculus. Kind of data set: Anti-inflammatory activity in BALB/c mouse model of LPS-induced ALI assessed as reduction in lung wet-to-dry ratios at 5 mg/kg dosed via intranasal insuffIation pre-treated 2 hrs before LPS stimulation for 16 hrs. It is filed as functional, organism-based. The settings on record: dose mg/kg 5-10, time 18.0 hrs.
Data set [8] concerns Mus musculus. Kind of data set: Anti-inflammatory activity in BALB/c mouse model of LPS-induced ALI assessed as reduction in number of neutrophils BALF at 5 mg/kg dosed via intranasal insuffIation pre-treated 2 hrs before LPS stimulation for 16 hrs. The settings on record: dose mg/kg 5-10, time 18.0 hrs. It is filed as functional, organism-based.
For data set [9], the system named is Mus musculus. The data set is described as follows: Anti-inflammatory activity in BALB/c mouse model of LPS-induced ALI assessed as reduction in LPS-induced TNFalpha in BALF at 10 mg/kg dosed via intranasal insuffIation pre-treated 2 hrs before LPS stimulation for 16 hrs. It is filed as functional, organism-based. The following applies: time 18.0 hrs.
In data set [10] the test system is Mus musculus. Kind of data set: Anti-inflammatory activity in BALB/c mouse model of LPS-induced ALI assessed as reduction in LPS-induced IL6 in BALF at 10 mg/kg dosed via intranasal insuffIation pre-treated 2 hrs before LPS stimulation for 16 hrs. In kind it is functional, organism-based. The settings on record: time 18.0 hrs.
Data set [11] concerns Mus musculus. The data set is described as follows: Anti-inflammatory activity in BALB/c mouse model of LPS-induced ALI assessed as reduction in LPS-induced extravasated BALF protein in BALF at 10 mg/kg dosed via intranasal insuffIation pre-treated 2 hrs before LPS stimulation for 16 hrs. The settings on record: time 18.0 hrs. It is filed as functional, organism-based.
Data set [12] relates to Mus musculus. Kind of data set: Anti-inflammatory activity in BALB/c mouse model of LPS-induced ALI assessed as reduction in LPS-induced TNFalpha in plasma at 10 mg/kg dosed via intranasal insuffIation pre-treated 2 hrs before LPS stimulation for 16 hrs. The settings on record: time 18.0 hrs. In kind it is functional, organism-based.
In data set [13] the test system is Mus musculus. Kind of data set: Anti-inflammatory activity in BALB/c mouse model of LPS-induced ALI assessed as reduction in LPS-induced IL6 in plasma at 10 mg/kg dosed via intranasal insuffIation pre-treated 2 hrs before LPS stimulation for 16 hrs. The settings on record: time 18.0 hrs. In kind it is functional, organism-based.
Data set [14] deals with Mus musculus. The data set is described as follows: Anti-inflammatory activity in BALB/c mouse model of LPS-induced ALI assessed as reduction in lung wet-to-dry ratios at 10 mg/kg dosed via intranasal insuffIation pre-treated 2 hrs before LPS stimulation for 16 hrs. It is filed as functional, organism-based. The settings on record: time 18.0 hrs.
The test system of data set [15] is Mus musculus. The data set is described as follows: Anti-inflammatory activity in BALB/c mouse model of LPS-induced ALI assessed as reduction in number of neutrophils BALF at 10 mg/kg dosed via intranasal insuffIation pre-treated 2 hrs before LPS stimulation for 16 hrs. It is filed as functional, organism-based. The settings on record: time 18.0 hrs.
Data set [16] deals with Macrophage. The data set is described as follows: Inhibition of calcineurin-NFATc3 interaction in mouse lung macrophages assessed as reduction in LPS-induced TNFalpha production at 0.01 to 10 uM pre-incubated 4 hrs before LPS stimulation for 8 hrs by ELISA. It is filed as tissue-based. The following applies: dose microM 0.01-10, time 12.0 hrs.
In data set [17] the test system is Macrophage. The data set is described as follows: Inhibition of calcineurin-NFATc3 interaction in mouse lung macrophages assessed as reduction in LPS-induced IL6 production at 0.01 to 10 uM pre-incubated 4 hrs before LPS stimulation for 8 hrs by ELISA. It is filed as tissue-based. The following applies: dose microM 0.01-10, time 12.0 hrs.
Data set [18] is described as follows: Toxicity in mouse lung macrophages cells assessed as reduction in cell viability up to 25 uM incubated for 72 hrs by MTT assay. The following applies: macrophage. It is filed as tissue-based.
Data set [19] is described as follows: Drug uptake in cytosol in human HeLa cells assessed as cytosolic delivery efficiency at 5 uM incubated for 2 hrs by floe cytometry relative to control. In kind it is ADME, subcellular.
Data set [20] relates to Macrophage. The data set is described as follows: Inhibition of LPS-induced TNFalpha production in mouse lung macrophages at 10 uM pre-incubated 4 hrs before LPS stimulation for 8 hrs by ELISA. In kind it is functional, cell-based. The settings on record: time 12.0 hrs.
The subject of data set [21] is Macrophage. The data set is described as follows: Inhibition of LPS-induced IL6 production in mouse lung macrophages at 10 uM pre-incubated 4 hrs before LPS stimulation for 8 hrs by ELISA. In kind it is functional, cell-based. The settings on record: time 12.0 hrs.
Data set [22] has as its system Macrophage. Kind of data set: Inhibition of calcineurin-NFATc3 interaction in mouse bone marrow-derived macrophages assessed as reduction in LPS-induced NFATc3 nuclear translocation at 1 uM pre-incubated before LPS stimulation for 1 hr using biotinylated compound by immunofluorescence staining assay.
A short description of data set [23]: Binding affinity to GST-tagged Calcineurin (unknown origin) incubated for 1 hr by fluorescence polarization assay. Further details: species or system Homo sapiens.
Data set [24] in a line: Half life in 25% human serum at 5 uM at 37 degC by HPLC analysis. It is filed as ADME, cell-free.

On to `CC[C@H](C)[C@H](NC(=O)[C@@H](NC(=O)c1cccc(Cl)c1Cl)C(C)(C)C)C(=O)N[C@H](C(=O)N[C@H](C(=O)N[C@H](C(=O)N[C@@H](CCC(N)=O)C(=O)N[C@@H](Cc1c[nH]cn1)C(=O)N[C@H](CC(C)C)C(=O)N[C@@H](CO)C(=O)NCCOCCOCC(=O)N[C@@H](CCCCNC(=O)CC[C@@H]1NC(=O)[C@@H](CCCNC(=N)N)NC(=O)[C@H](CCCNC(=N)N)NC(=O)[C@@H](CCCNC(=N)N)NC(=O)[C@H](CCCNC(=N)N)NC(=O)[C@H](Cc2ccc3ccccc3c2)NC(=O)[C@@H](Cc2ccccc2)NC1=O)C(N)=O)[C@@H](C)O)[C@@H](C)CC)C(C)(C)O`, for which, in the data set with Jurkat, the inhibition entry was “Active”.

`CC[C@H](C)[C@H](NC(=O)[C@@H](NC(=O)c1cccc(Cl)c1Cl)C(C)(C)C)C(=O)N[C@H](C(=O)N[C@H](C(=O)N[C@H](C(=O)N[C@@H](CCC(N)=O)C(=O)N[C@@H](Cc1c[nH]cn1)C(=O)N[C@H](CC(C)C)C(=O)N[C@@H](CO)C(=O)NCCOCCOCC(=O)N[C@@H](CCCCNC(=O)CC[C@@H]1NC(=O)[C@@H](CCCNC(=N)N)NC(=O)[C@H](CCCNC(=N)N)NC(=O)[C@@H](CCCNC(=N)N)NC(=O)[C@H](CCCNC(=N)N)NC(=O)[C@H](Cc2ccc3ccccc3c2)NC(=O)[C@@H](Cc2ccccc2)NC1=O)C(N)=O)[C@@H](C)O)[C@@H](C)CC)C(C)(C)C` (I: {Benzoyl(2,3-Cl2)}-[Tle]I[Tle]ITQH[dL]S[AEEA]K-NH2 / II: cyclo([2Nal]R[dR]R[dR]E[dF]); amide I:11-II:6) returned a half-life in [1] of over 1440 min. The Activity entry (in the data set on HeLa; in data set [18]) was “Non-Toxic” each time. Also, the result in the data set on Mus musculus [2], in the data set with Mus musculus [3], with Mus musculus [4], with Mus musculus [5], with Mus musculus [6] and in the data set with Mus musculus [7] was inactive. For the same compound, the outcome with Mus musculus [8], in the data set on Mus musculus [9], in the data set on Mus musculus [10], in the data set with Mus musculus [11], in the data set on Mus musculus [12] and in the data set on Mus musculus [13] was inactive. Moreover, the result with Mus musculus [14] and with Mus musculus [15] was inactive. The inhibition entry in the data set on Macrophage [16] and with Macrophage [17] was “inactive” throughout.

With `N=C(N)NCCC[C@@H]1NC(=O)[C@H](Cc2ccc3ccccc3c2)NC(=O)[C@@H](Cc2ccccc2)NC(=O)[C@H](CCC(N)=O)NC(=O)[C@@H](CCCNC(=N)N)NC(=O)[C@H](CCCNC(=N)N)NC(=O)[C@@H](CCCNC(=N)N)NC1=O` (cyclo([2Nal]R[dR]R[dR]Q[dF])), the Drug uptake in data set [19] is reported as 62%.

With `CC(C)[C@H](NC(=O)[C@H](C)NC(=O)[C@@H](NC(=O)[C@@H]1CCCN1C(=O)[C@H](Cc1cnc[nH]1)NC(=O)[C@@H]1CCCN1C(=O)CNC(=O)COCCOCCNC(=O)CC[C@@H]1NC(=O)[C@@H](CCCNC(=N)N)NC(=O)[C@H](CCCNC(=N)N)NC(=O)[C@@H](CCCNC(=N)N)NC(=O)[C@H](CCCNC(=N)N)NC(=O)[C@H](Cc2ccc3ccccc3c2)NC(=O)[C@@H](Cc2ccccc2)NC1=O)C(C)C)C(=O)N[C@@H](C)C(=O)N[C@@H](C)C(=O)NCC(=O)N1CCC[C@H]1C(=O)N[C@@H](Cc1c[nH]cn1)C(=O)N[C@@H](CCC(=O)O)C(=O)N[C@@H](CCC(=O)O)C(=O)N[C@@H](CCCCN)C(N)=O`, the inhibition entry in the data set on Macrophage [20] and with Macrophage [21] was “Active” each time. Moreover, the outcome with Mus musculus [2], in the data set on Mus musculus [3], in the data set on Mus musculus [4], with Mus musculus [5], in the data set with Mus musculus [6] and with Mus musculus [7] was inactive. The result in the data set on Mus musculus [8], in the data set with Mus musculus [9], in the data set with Mus musculus [10], in the data set on Mus musculus [11], with Mus musculus [12] and with Mus musculus [13] was inactive. For the same compound, the result in the data set with Mus musculus [14] and in the data set on Mus musculus [15] was inactive. Also, the inhibition entry in the data set with Macrophage [22] was “inactive”.

With `CC[C@H](C)[C@H](NC(=O)[C@@H](NC(=O)[C@@H](NC(=O)[C@@H](NC(=O)[C@@H]1CCCN1C(=O)[C@H](Cc1cnc[nH]1)NC(=O)[C@@H]1CCCN1C(=O)CN)C(C)(C)C)[C@@H](C)CC)C(C)(C)C)C(=O)N[C@H](C(=O)NCC(=O)N1[C@H](C(=O)N[C@@H](Cc2cnc[nH]2)C(=O)N[C@@H](CCC(=O)O)C(=O)N[C@@H](CCC(=O)O)C(=O)O)CSC1(C)C)[C@@H](C)O` (H-GPHP[Tle]I[Tle]ITG[X3]HEE-OH), in data set [23], the Kd was determined as 2.6 nM. In [24], this compound gave a half-life at 5 µM of 360 min.
